# In patent US4835176A, “Glycookadaic acid, preparation thereof and use thereof” (priority 1987, dated 1989):
# “Also recorded” adds a separate entry of the source.
# How the values were obtained:
# [1] = test system: B-16 melanoma cell; test: Cytotoxicity, 50% growth inhibition of B-16 melanoma cell; type: cell-based
# Protocol: (§1) B-16 melanoma cell, P388 leukemia cell or L 929 cell was cultivated together with a prescribed amount of a test drug on a 24-well or 96-well test plate and the number of living cells was measured one day or 3 days later to know the 50% growth inhibition concentration.
# [2] = test system: L 929 cell; test: Cytotoxicity, 50% growth inhibition of L 929 cell; type: cell-based
# Protocol: as §1
# [3] = test system: BDF1 mouse; test: Acute toxicity, i.p. injection in BDF1 mouse; type: in vivo
# Protocol: (§2) A test drug was injected into the peritoneal cavity of BDF1 mouse (5 weeks old, female) to measure 50% lethal dose (LD50).
# [4] = test system: lipoprotein lipase (LPL) of 3T3-L1 cells; test: Recovery effect on cachectin/TNF-induced reduction of lipoprotein lipase (LPL) in adipocytes; type: cell-based
# Protocol: (§3) 3T3-L1 cells (5×10^4 cells per well) were cultivated in wells of 48-well test plate for about one week until the cell growth reached became confluent. Test drug and 4×10^-10 ^- 10 g/ml (32 unit/ml as TNF activity) of recombinant human TNF (rHu-TNF) were added, and the cultivation was further continued.
# (§4) After 20 hours, the test drug and rHu-TNF were removed. Then 10 unit/ml of heparin was added, and after 90 min., activity of lipoprotein lipase (LPL) isolated from 3T3-L1 cell by heparin was measured according to the method as described in Nelsson-Ehle, P., et al., J. Lipid Res., 17, 536 (1976).
# (§5) On the LPL activity measured, the recovery on the reduction of lipoprotein lipase production was calculated by the following formula: [formula]
# (§6) ^1 The experiment was performed in the presence of rHu TNF (32
# [5] = test system: L 929 cells; test: Effect on cytotoxic activity of TNF; type: cell-based
# Protocol: L 929 cells (10^4 cells/well) was cultivated on a test plate having 96 wells, and after 24 hours, a test drug and recombinant human-tumor necrosis factor (rHu - TNF) were added thereto such that rHu - TNF became 2.5×10^-11 g/ml (TNF activity of 2 unit/ml), and then, after 24 hours, the number of living cells was measured.
# The effect of test drug on the cytotoxicity of TNF was calculated according to the above-mentioned formula (A) and shown by "%" value.
# ^1 The experiments were effected in the presence of TNF (2 units/ml)
# [6] = Solubility; type: physicochemical
# [7] = Stability; type: physicochemical
# [8] = Acid or base; type: physicochemical
# [9] = test system: P388 leukemia cell; test: Cytotoxicity, 50% growth inhibition of P388 leukemia cell; type: cell-based; conditions: Mus musculus, read-out: 50% growth inhibition concentration (IC50)
# Protocol: as §1
# [10] = Acute toxicity, i.p. injection in BDF1 mouse; type: in vivo; conditions: in vivo, ip, 5 weeks old, female, intraperitoneal, read-out: 50% Lethal dose (LD50)
# Protocol: as §2
# [11] = Recovery effect on cachectin/TNF-induced reduction of lipoprotein lipase (LPL) in adipocytes; type: cell-based; conditions: mouse, 3t3-l1 cells; read-out: Concentration at which OK exhibits cytotoxicity
# Protocol: as §3, §4, §5, §6
Compound,"50% growth inhibition concentration (IC50) ([1]; B-16 melanoma, cultivated for one day)",Cytotoxicity compared with OK ([1]; all cell species of Table 1),50% growth inhibition concentration (IC50) [2],Toxicity (in words) [3],"50% Lethal dose (LD50) ([3]; 5 weeks old, female, intraperitoneal)",LD50 of GOK relative to that of OK ([3]; intraperitoneal),Recovery of LPL generation in adipocytes (in words) [4],Concentration with effect of recovering from the lowering of production of lipoprotein lipase ([4]; 3T3-L1 cells with rHu-TNF),Effect on cytolytic activity of TNF (in words) [5],Solubility ([6]; acetone or chloroform),"Solubility ([6]; methanol, ethanol or pyridine)",Stability ([7]; acid),Stability ([7]; alkali),Acid or base [8],"IC50 ([1]; Mus musculus, B16, 24 h, B-16 melanoma, cultivated for one day, read-out: 50% growth inhibition concentration (IC50))",IC50 [9],"IC50 ([2]; Mus musculus, L929, read-out: 50% growth inhibition concentration (IC50))",LD50 [10],MCC [11],"Effect on lowered LPL production (in words) ([4]; OK, even at 0.1 μg/ml)"
glycookadaic acid [GOK],19 µg/mL,much weaker than that of OK,28 µg/mL,toxicity of GOK is low; also recorded: far safer drug than OK,> 16 mg/kg,≥ 100 times,specifically recovers the lowering effect on the generation of lipoprotein lipase in adipocytes,3 to 10 µg/mL,Neither GOK nor OK affected the cytolytic activity of TNF; also recorded: does not suppress the cytotoxic activity of cachectin/TNF toward cancer cells,Insoluble or sparsely soluble,Easily soluble,Unstable to acid,Relatively stable to alkali,Weekly acidic substance,,,,,,
"C=C1C(O)C2OC3(CCC(C=CC(C)C4CC(C)=CC5(OC(CC(C)(O)C(=O)O)CCC5O)O4)O3)CCC2OC1C(O)CC(C)C1OC2(CCCCO2)CCC1C (stereo not drawn) [OK, okadaic acid]",,,,,,,,,Neither GOK nor OK affected the cytolytic activity of TNF,,,,,,0.018 µg/mL,0.024 µg/mL,0.084 µg/mL,0.16 mg/kg,0.1 µg/mL,did not exhibit the effect of inhibition
